Patent publication US9328106B2, “Cyclic ether pyrazol-4-yl-heterocyclyl-carboxamide compounds and methods of use” (Genentech, Inc., priority 2012, dated 2016)
Where two headings read alike, the source gives them in different places.

Key:
[1] = tested on: MM1.S (multiple myeloma) cells; assay: In vitro cell proliferation, MM1.S multiple myeloma cells; type: cell-based; conditions: MM1.S cells, 72 hours, CELL TITER GLO, read-out: Prolif MM1S ATP (EC50);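 also: cells cultured in RPMI with 10% FBS and 2 mM L-Glutamine, seeded in 384-well plates, exposed to compound, cell viability measured by luminescence after CellTiter-Glo addition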
Method: (§1) BaF3 parental line was obtained from the DSMZ repository. […] Media for BaF3 parental line contained RPMI, 10% FBS, 2 mM L-Glutamine, 2 ng/mL mIL-3. Media for BaF3 PIM1 & 2 lines contained RPMI, 10% FBS, 2 mM L-Glutamine, 250 μg/mL. Media for MM1.S (multiple myeloma cells) line contained RPMI, 10% FBS, 2 mM L-Glutamine.
(§2) BaF3, a murine interleukin-3 dependent pro-B cell line, parental cells, BaF3 PIM1 cells, BaF3 PIM2 cells, and MM1.S (multiple myeloma) cells were seeded at 2 k/well, 5 k/well, 5 k/well, and 10 k/well respectively, in a 384-well plate, at 45 μL/well. Test compound was added at 5 μL/well. BaF3 cells (parental and transfected) were incubated overnight, while MM1.S cells were incubated for 72 hours at 37° C., 5% CO2. CELL TITER GLO® Reagent (Promega) was added at 50 μL/well, the plates were incubated for 30 minutes, and their luminescence read on an HT Analyst. IC50/EC50 values for the test compound were calculated.

BaF3 PIM1 cells = assay: In vitro cell proliferation, BaF3 transfected with PIM1; type: cell-based, murine;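 also: murine IL-3-dependent pro-B BaF3 cells transfected with PIM1, compound exposure overnight at 37 °C under 5% CO2, viability read as luminescence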
Method: as §1, §2

BaF3 parental cells = assay: In vitro cell proliferation, BaF3 parental line + IL3; type: cell-based, murine; conditions: mIL-3, incubated overnight, CELL TITER GLO, read-out: Prolif BaF3 IL3 (IC50);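 also: BaF3 parental cells are murine IL-3 dependent pro-B cells grown with 2 ng/mL mIL-3, 384-well format, viability read by luminescence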
PIM1 = PIM1 (Homo sapiens (Human), UniProt P11309); assay: biochemical; type: biochemical; conditions: 20 pM PIM1, 1 μM FAM-peptide, 10 μM ATP, 90 minutes at room temperature; read-out: PIM1 LC3K (KI)
[2] = Mus musculus, BaF3, read-out: Prolif BaF3 PIM1 (IC50), BaF3 PIM1 cells, incubated overnight, CELL TITER GLO
[3] = Mus musculus, BaF3, BaF3 parental

Sequence of PIM1 (P11309 whole entry): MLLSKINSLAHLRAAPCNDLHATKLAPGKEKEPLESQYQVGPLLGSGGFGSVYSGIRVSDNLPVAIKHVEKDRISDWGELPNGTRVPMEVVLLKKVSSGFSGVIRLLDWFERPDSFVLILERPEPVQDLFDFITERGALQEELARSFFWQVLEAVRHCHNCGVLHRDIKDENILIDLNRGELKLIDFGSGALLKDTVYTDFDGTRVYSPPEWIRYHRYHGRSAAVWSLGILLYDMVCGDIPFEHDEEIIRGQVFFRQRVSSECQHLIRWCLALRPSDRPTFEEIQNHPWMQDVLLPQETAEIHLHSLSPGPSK

EC50 ([1]; Homo sapiens, MM1.S, 72 h)	IC50 (BaF3 PIM1 cells; [2])	Ki (PIM1)	EC50 [1]	IC50 (BaF3 PIM1 cells; read-out: Prolif BaF3 PIM1 (IC50), BaF3 PIM1 cells, incubated overnight, CELL TITER GLO)	Compound	IC50 (BaF3 parental cells; [3])	IC50 (BaF3 parental cells; BaF3 parental)
5700 nM	823 nM	0.991 nM	–	–	Cn1ncc(NC(=O)c2csc(-c3cccnc3)n2)c1[C@@H]1CC[C@@H](N)[C@H](F)CO1 [Example 383, N-[5-[(2S,5R,6S)-5-amino-6-fluoro-oxepan-2-yl]-1-methyl-pyrazol-4-yl]-2-(3-pyridyl)thiazole-4-carboxamide]	20800 nM	–
5800 nM	262 nM	0.007 nM	–	–	Cn1ncc(NC(=O)c2ccc(F)c(-c3ccc(Cl)cc3F)n2)c1[C@@H]1CC[C@@H](N)[C@H](F)CO1 [Example 359, N-(5-((2S,5R,6S)-5-amino-6-fluorooxepan-2-yl)-1-methyl-1H-pyrazol-4-yl)-6-(4-chloro-2-fluorophenyl)-5-fluoropicolinamide]	11600 nM	–
520 nM	621 nM	0.076 nM	–	–	Cn1ncc(NC(=O)c2csc(-c3c(F)cccc3F)n2)c1[C@H]1CC[C@H](N)[C@H](O)CO1 [Example 351, N-(5-((2R,5S,6S)-5-amino-6-hydroxyoxepan-2-yl)-1-methyl-1H-pyrazol-4-yl)-2-(2,6-difluorophenyl)thiazole-4-carboxamide]	9900 nM	–
4400 nM	151 nM	0.057 nM	–	–	Cn1ncc(NC(=O)c2csc(-c3c(F)cc([C@@H]4CCCO4)cc3F)n2)c1[C@@H]1CC[C@@H](N)[C@H](F)CO1 (single isomer, unassigned) [Example 371]	> 25000 nM	–
> 6200 nM	51.7 nM	0.01 nM	–	–	Cn1ncc(NC(=O)c2csc(-c3c(F)cc(C4(F)COC4)cc3F)n2)c1[C@@H]1CC[C@@H](N)[C@H](F)CO1 [Example 340, N-(5-((2S,5R,6S)-5-amino-6-fluorooxepan-2-yl)-1-methyl-1H-pyrazol-4-yl)-2-(2,6-difluoro-4-(3-fluorooxetan-3-yl)phenyl)thiazole-4-carboxamide]	20700 nM	–
1500 nM	113 nM	0.072 nM	–	–	Cn1ncc(NC(=O)c2csc(-c3ccccc3F)n2)c1[C@@H]1CC[C@@H](N)[C@H](F)CO1 [Example 322, N-(5-((2S,5R,6S)-5-amino-6-fluorooxepan-2-yl)-1-methyl-1H-pyrazol-4-yl)-2-(2-fluorophenyl)thiazole-4-carboxamide]	6300 nM	–
648 nM	176 nM	0.021 nM	–	–	Cn1ncc(NC(=O)c2csc(-c3ccccc3)n2)c1[C@@H]1CC[C@@H](N)[C@H](F)CO1 [Example 327, N-(5-((2S,5R,6S)-5-amino-6-fluorooxepan-2-yl)-1-methyl-1H-pyrazol-4-yl)-2-phenylthiazole-4-carboxamide]	16800 nM	–
5100 nM	3400 nM	0.083 nM	–	–	CN(C)C(=O)c1cc(F)c(-c2nc(C(=O)Nc3cnn(C)c3[C@@H]3CC[C@@H](N)[C@H](F)CO3)cs2)c(F)c1 [Example 354, N-(5-((2S,5R,6S)-5-amino-6-fluorooxepan-2-yl)-1-methyl-1H-pyrazol-4-yl)-2-(4-(dimethylcarbamoyl)-2,6-difluorophenyl)thiazole-4-carboxamide]	7300 nM	–
385 nM	50.6 nM	0.0137 nM	–	–	Cn1ncc(NC(=O)c2csc(-c3c(F)cccc3F)n2)c1[C@@H]1CC[C@@H](N)[C@H](F)CO1 [Example 321, N-(5-((2S,5R,6S)-5-amino-6-fluorooxepan-2-yl)-1-methyl-1H-pyrazol-4-yl)-2-(2,6-difluorophenyl)thiazole-4-carboxamide]	4400 nM	–
1000 nM	359 nM	0.014 nM	–	–	CO[C@@H]1CO[C@H](c2c(NC(=O)c3csc(-c4ncccc4C)n3)cnn2C)CC[C@H]1N [Example 348, N-(5-((2S,5R,6S)-5-amino-6-methoxyoxepan-2-yl)-1-methyl-1H-pyrazol-4-yl)-2-(3-methylpyridin-2-yl)thiazole-4-carboxamide]	10500 nM	–
1700 nM	37.2 nM	0.071 nM	–	–	Cn1ncc(NC(=O)c2csc(-c3c(F)cc([C@H]4CCCO4)cc3F)n2)c1[C@@H]1CC[C@@H](N)[C@H](F)CO1 (single isomer, unassigned) [Example 380]	12200 nM	–
436 nM	132 nM	0.031 nM	–	–	Cn1ncc(NC(=O)c2csc(-c3ccccn3)n2)c1[C@@H]1CC[C@@H](N)[C@H](F)CO1 [Example 326, N-(5-((2S,5R,6S)-5-amino-6-fluorooxepan-2-yl)-1-methyl-1H-pyrazol-4-yl)-2-(pyridin-2-yl)thiazole-4-carboxamide]	12400 nM	–
938 nM	68.2 nM	0.009 nM	–	–	Cn1ncc(NC(=O)c2csc(-c3c(F)cc(C4CC4)cc3F)n2)c1[C@@H]1CC[C@@H](N)[C@H](F)CO1 [Example 358, N-(5-((2S,5R,6S)-5-amino-6-fluorooxepan-2-yl)-1-methyl-1H-pyrazol-4-yl)-2-(4-cyclopropyl-2,6-difluorophenyl)thiazole-4-carboxamide]	4100 nM	–
336 nM	50.7 nM	0.036 nM	–	–	COc1cccc(-c2nc(C(=O)Nc3cnn(C)c3[C@@H]3CC[C@@H](N)[C@H](F)CO3)cs2)c1F [Example 362, N-(5-((2S,5R,6S)-5-amino-6-fluorooxepan-2-yl)-1-methyl-1H-pyrazol-4-yl)-2-(2-fluoro-3-methoxyphenyl)thiazole-4-carboxamide]	3100 nM	–
4400 nM	5600 nM	9.7 nM	–	–	CC(C)Oc1ncccc1-c1nc(C(=O)Nc2cnn(C)c2[C@@H]2CC[C@@H](N)[C@H](F)CO2)cs1 [Example 384, N-[5-[(2S,5R,6S)-5-amino-6-fluoro-oxepan-2-yl]-1-methyl-pyrazol-4-yl]-2-(2-isopropoxy-3-pyridyl)thiazole-4-carboxamide]	7200 nM	–
1400 nM	108 nM	0.053 nM	–	–	COc1ccc(F)c(-c2nc(C(=O)Nc3cnn(C)c3[C@@H]3CC[C@@H](N)[C@H](F)CO3)cs2)c1 [Example 356, N-(5-((2S,5R,6S)-5-amino-6-fluorooxepan-2-yl)-1-methyl-1H-pyrazol-4-yl)-2-(2-fluoro-5-methoxyphenyl)thiazole-4-carboxamide]	6500 nM	–
6900 nM	96.8 nM	0.003 nM	–	–	C[C@H]1O[C@@H](c2c(NC(=O)c3csc(-c4c(F)cccc4F)n3)cnn2C)C[C@@H](N)[C@]1(C)O (single isomer, unassigned) [Example 341]	> 25000 nM	–
10000 nM	1500 nM	0.27 nM	–	–	Cn1ncc(NC(=O)c2nc(-c3c(F)cccc3F)sc2N)c1C1CC[C@H](N)[C@H](F)CO1 (stereo partly drawn) [Example 131, 5-amino-N-(5-((5S,6S)-5-amino-6-fluorooxepan-2-yl)-1-methyl-1H-pyrazol-4-yl)-2-(2,6-difluorophenyl)thiazole-4-carboxamide]	6800 nM	–
3300 nM	157 nM	0.014 nM	–	–	CO[C@@H]1CO[C@H](c2c(NC(=O)c3csc(-c4c(F)cccc4F)n3)cnn2C)CC[C@H]1N [Example 347, N-(5-((2S,5R,6S)-5-amino-6-methoxyoxepan-2-yl)-1-methyl-1H-pyrazol-4-yl)-2-(2,6-difluorophenyl)thiazole-4-carboxamide]	5000 nM	–
–	–	0.017 nM	2400 nM	44.8 nM	Cn1ncc(NC(=O)c2nc(-c3c(F)cccc3F)sc2N)c1C12CCC(O)C(CC1)O2 (single isomer, unassigned) [Example 110, 5-amino-2-(2,6-difluorophenyl)-N-[5-(2-hydroxy-8-oxabicyclo[3.2.1]octan-5-yl)-1-methyl-pyrazol-4-yl]thiazole-4-carboxamide]	–	9400 nM
8500 nM	2100 nM	0.502 nM	–	–	CC[C@@H]1CC(N)CC[C@H](c2c(NC(=O)c3nc(-c4c(F)cccc4F)sc3N)cnn2C)O1 (stereo partly drawn) [Example 112, 5-amino-N-(5-((2R,7R)-5-amino-7-ethyloxepan-2-yl)-1-methyl-1H-pyrazol-4-yl)-2-(2,6-difluorophenyl)thiazole-4-carboxamide]	6900 nM	–
10000 nM	186 nM	0.283 nM	–	–	Cn1ncc(NC(=O)c2nc(-c3ccccc3C(F)(F)F)sc2N)c1[C@@H]1CC[C@@H](N)[C@H](F)CO1 [Example 323, 5-amino-N-(5-((2S,5R,6S)-5-amino-6-fluorooxepan-2-yl)-1-methyl-1H-pyrazol-4-yl)-2-(2-(trifluoromethyl)phenyl)thiazole-4-carboxamide]	> 25000 nM	–
3400 nM	101 nM	0.009 nM	–	–	Cn1ncc(NC(=O)c2csc(-c3n[nH]c4c3CCC(C)(C)C4)n2)c1[C@@H]1CC[C@@H](N)[C@H](F)CO1 [Example 373, N-(5-((2S,5R,6S)-5-amino-6-fluorooxepan-2-yl)-1-methyl-1H-pyrazol-4-yl)-2-(6,6-dimethyl-4,5,6,7-tetrahydro-1H-indazol-3-yl)thiazole-4-carboxamide]	8600 nM	–
452 nM	250 nM	0.068 nM	–	–	Cc1cccc(-c2nc(C(=O)Nc3cnn(C)c3[C@@H]3CC[C@@H](N)[C@H](F)CO3)cs2)c1F [Example 361, N-[5-[(2S,5R,6S)-5-amino-6-fluoro-oxepan-2-yl]-1-methyl-pyrazol-4-yl]-2-(2-fluoro-3-methyl-phenyl)thiazole-4-carboxamide]	2800 nM	–
